Data: patent US11786609B2, “Lipid compound as well as lipid vector, nucleic acid lipid nanoparticle composition, and pharmaceutical preparation comprising the same” (PURECODON (HONG KONG) BIOPHARMA LIMITED, priority 2021, dated 2023)

What was measured:
[1] = Particle size, PDI and encapsulation efficiency of LNP@mRNA; type: physicochemical; settings: Example 26 LNP@mRNA, summary of Table 1
[2] = as above; type: physicochemical; settings: Example 26: LNP@mRNA of compound, cholesterol, DOPE, PEG-DMG 35:46.5:16:2.5; luciferase mRNA
Protocol: (§1) Compounds 1, 2, 17, 27 or 33 was each dissolved in the first solution with cholesterol, DOPE and PEG-DMG in a molar ratio of 35:46.5:16:2.5, and luciferase mRNA was dissolved in the second solution. […] Microfluidics was utilized to quickly mix the two phases, and dialysis or tangential flow was utilized to replace the buffer environment with PBS (pH 7.4) and thus remove ethanol, so as to prepare and afford five kinds of LNP@mRNAs, respectively.
Microfluidics was utilized to quickly mix the two phases, and dialysis or tangential flow was utilized to replace the buffer environment with PBS (pH 7.4) and thus remove ethanol, so as to prepare and afford LNP@mRNA.
The particle size, PDI and encapsulation efficiency of each of the above-mentioned LNP@mRNAs were determined, and the results were successively shown in Table 3.

[3] = tested on: mice; experiment: Fluorescence intensity in mice after intramuscular injection of LNP@mRNA (luciferase mRNA); type: in vivo; settings: for maximum fluorescence intensity: intramuscular injection of LNP@mRNA (compound and other three lipids), FIG. 7
Protocol: as §1
(§2) The prepared LNP@mRNAs were each injected into mice via tail vein or muscle, and the fluorescence intensities and organ distribution in mice were determined 6 hours later.
The prepared mRNA@LNPs were each injected into mice via intramuscular injection, and the fluorescence intensities and organ distribution in mice were determined 6 hours later.

[4] = tested on: mice; experiment: Organ distribution of mRNA expression in mice after intravenous (tail vein) injection of LNP@mRNA; type: in vivo; settings: 6 hours after intravenous (tail vein) injection, anatomical image
Protocol: as §1, §2

Compound	encapsulation efficiency (in words) [1]	particle size (in words) [1]	Encapsulation efficiency [2] [%]	PDI [2]	Particle size [2] [nm]	maximum fluorescence intensity [3]	mRNA expression in liver [4]	mRNA expression in spleen [4]	expression relative to LNP@mRNA prepared by Compound 27 ([3]; intramuscular injection, ratio of maximum fluorescence intensities) [times]
CCCCCCCCC(CCCCCC)C(=O)OCCN(CCCN(C)CCCN(CCOC(=O)C(CCCCCC)CCCCCCCC)CCOC(=O)C(CCCCCC)CCCCCCCC)CCOC(=O)C(CCCCCC)CCCCCCCC (centres unmarked) [Compound 1]	relatively high encapsulation efficiency	relatively small particle size	96	0.14	95	–	–	–	–
CCCCCCC(CCCC)C(=O)OCCCCCCN(CCCCCCOC(=O)C(CCCC)CCCCCC)CCCN(C)CCCN(CCCCCCOC(=O)C(CCCC)CCCCCC)CCCCCCOC(=O)C(CCCC)CCCCCC (centres unmarked) [Compound 27]	–	relatively small particle size	57	0.21	90	3.39*10^5	few mRNA was expressed in liver	mainly expressed in spleen	–
CCCCCCCCC(CCCCCC)C(=O)OCCCCCCN(CCCCCCOC(=O)C(CCCCCC)CCCCCCCC)CCCN(C)CCCN(CCCCCCOC(=O)C(CCCCCC)CCCCCCCC)CCCCCCOC(=O)C(CCCCCC)CCCCCCCC (centres unmarked) [Compound 17]	relatively high encapsulation efficiency	–	96	0.19	184	–	–	–	–
CCCCCCC(CCCC)C(=O)OCCN(CCCN(C)CCCN(CCOC(=O)C(CCCC)CCCCCC)CCOC(=O)C(CCCC)CCCCCC)CCOC(=O)C(CCCC)CCCCCC (centres unmarked) [Compound 2]	relatively high encapsulation efficiency	relatively small particle size	86	0.20	84	–	few mRNA was expressed in liver	mainly expressed in spleen	–
CCCCCCC(CCCC)C(=O)OCCCCOC(=O)CCN(CCCN(C)CCCN(CCC(=O)OCCCCOC(=O)C(CCCC)CCCCCC)CCC(=O)OCCCCOC(=O)C(CCCC)CCCCCC)CCC(=O)OCCCCOC(=O)C(CCCC)CCCCCC (centres unmarked) [Compound 33]	relatively high encapsulation efficiency	relatively small particle size	96	0.11	86	1.59*10^7	mainly expressed in liver	some mRNA was expressed in spleen	46.9
